Laboratory results as given in PubChem BioAssay AID449725 (University of Pittsburgh Molecular Library Screening Center, 2010).
Active and inactive are the calls of the source. No rule for the calls is given here.

System: IMR-90 human lung fibroblast viability counter screen
Assay: IMR-90 fibroblast viability reduction, dose response, cytotoxicity control, cell-based, IC50 (AID 449725);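 also: 48 hour compound exposure before the viability read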

SMILES	IC50
COc1ccc(C(=O)NC(CC(=O)O)c2cccc(Cl)c2)cc1 (stereo not drawn)	> 25 µM (inactive)
COc1cccc(C(=O)Nc2cc(Cl)ccc2C(=O)O)c1	> 25 µM (inactive)
CC1(c2ccc(C(=O)Nc3cc(Cl)ccc3C(=O)O)cc2)CC1	> 25 µM (inactive)
O=C(O)c1ccc(Cl)cc1NC(=O)N1CCOCC1	> 25 µM (inactive)
CCCCCC(=O)Nc1cc(Cl)ccc1C(=O)O	> 25 µM (inactive)
COc1ccc(NC(=O)c2ccc(Cl)cc2C(=O)O)cc1	> 25 µM (inactive)
Cc1cc(=O)n(-c2ccccc2)s1	9.14 µM
O=c1c2ccccc2sn1-c1ccc(Cl)cc1	> 25 µM (inactive)
COc1ccc(C(=O)Nc2cc(Cl)c(C)cc2C(=O)O)cc1	> 25 µM (inactive)
COc1ccc(C(=O)Nc2cc(C(F)(F)F)ccc2C(=O)O)cc1	> 25 µM (inactive)
O=C(Cn1sc2ccccc2c1=O)N1CCOCC1	> 25 µM (inactive)
O=C(Cn1sc2ccccc2c1=O)NCc1ccccc1	6.37 µM
COc1ccccc1-n1sc2ccccc2c1=O	6.29 µM
N#Cc1ccc(NC(=O)Cn2sc3ccccc3c2=O)cc1	19.7 µM
O=c1c2ccc(Br)cc2sn1-c1ccccc1	> 25 µM (inactive)
O=C(Cn1sc2ccccc2c1=O)N1CCCCC1	16.5 µM
COc1ccccc1C(=O)Nc1cc(Cl)ccc1C(=O)O	> 25 µM (inactive)

SMILES	IC50
CC(=O)Nc1ccc2c(=O)n(-c3ccccc3)sc2c1	> 25 µM (inactive)
O=C(Nc1cc(Cl)ccc1C(=O)O)c1ccc2c(c1)OCO2	> 25 µM (inactive)
COc1ccc(C(=O)Nc2cc(OC)ccc2C(=O)O)cc1	> 25 µM (inactive)
O=c1c2cc(F)ccc2sn1-c1ccccc1Cl	6.16 µM
O=C(Cn1sc2ccccc2c1=O)NC1CCCCC1	12.8 µM
O=c1c2ccc(F)cc2sn1Cc1ccccc1	> 25 µM (inactive)
COc1ccc(N2C(=O)c3ccc(Cl)cc3C2=O)cc1	> 25 µM (inactive)
O=C(Cn1sc2cc(F)ccc2c1=O)Nc1ccccc1	14.8 µM
O=c1c2cc(Br)ccc2sn1-c1ccccc1	> 25 µM (inactive)
COc1ccc2c(=O)n(-c3ccccc3)sc2c1	> 25 µM (inactive)
CCCc1ccc(C(=O)Nc2cc(Cl)ccc2C(=O)O)cc1	> 25 µM (inactive)
CC(C)c1cccc(C(=O)Nc2cc(Cl)ccc2C(=O)O)c1	> 25 µM (inactive)
COc1ccc(C(=O)Nc2cc(Cl)ccc2[N+](=O)[O-])cc1	> 25 µM (inactive)
O=c1s[nH]c2ccccc12	> 25 µM (inactive)
CN(C)c1ccc(NC(=O)Cn2sc3ccccc3c2=O)cc1	18.4 µM
O=c1cc(-c2ccccc2)sn1-c1ccccc1	13.4 µM
